Measured values published in patent US8445636B2, “Antimicrobial and anticancer lipopeptides” (Yeda Research & Development Co. Ltd., priority 2003, dated 2013).
In brackets after ≈: the same amount, converted by molar mass. Where two headings read alike, the source gives them in different places. Non-standard residues stand in square brackets, D forms with d. Residues, ends and D or L forms follow the SMILES beside them. *: point of attachment. Palmitoyl = CCCCCCCCCCCCCCCC(=O)*; Myristoyl = CCCCCCCCCCCCCC(=O)*; Undecanoyl = CCCCCCCCCCC(=O)*; Lauroyl = CCCCCCCCCCCC(=O)*

Experiments:
Assay type in all cases: cell-based
[1] = test system: Aspergillus fumigatus ATCC 26430; assay: microbe, parasite or virus in culture
[2] = test system: Candida albicans ATCC 10231; assay: microbe, parasite or virus in culture; settings: for MIC: read-out: Minimal Inhibitory Concentration, Candida Albicans (ATCC 10231)
Protocol: (§1) The antifungal activity of the lipopeptides was examined in sterile 96-well plates (Nunc F96 microtiter plates) in a final volume of 200 μL as follows: 100 µl of a suspension containing fungi at a concentration of 1×10^4 Colony-Forming Units (CFU)/ml in culture medium (RPMI 1640, 0.165 M MOPS with L-glutamine, without NaHCO3) at pH 7.4 or pH 5.5 (adjustment of the pH was done by diluted solutions of HCl and NaOH) were added to 100 μl of water containing the peptide in serial 2-fold dilutions in water. The fungi were incubated in the presence of the lipopeptides for 24-48 h at 35° C. in a Binder KB115 incubator under agitation. Growth inhibition was determined by measuring the absorbance at 620 nm with a Microplate autoreader E1309 (Bio-Tek Instruments). Antifungal activity is expressed as the minimal inhibitory concentration (MIC), the concentration at which 100% inhibition of fungi growth was observed after the incubation time mentioned above. The fungi used were: Aspergillus niger ATCC 9642, Candida albicans ATCC 10231 and Cryptococcus neoformans ATCC 66031. If not indicated otherwise, the fungi growth was detected at pH 7.4.

[3] = test system: Pseudomonas aeruginosa ATCC 27853
Protocol: (§2) The antibacterial activity of the lipopeptides was examined in sterile 96-well plates (Nunc F96 microtiter plates) in a final volume of 100 μl as follows: Aliquots (50 μl) of a suspension containing bacteria at concentration of 1×10^6 Colony-Forming Units (CFU)/ml in culture LB (Lauria broth) medium (pH 7.4 or pH 5.5) were added to 50 μl of water containing the lipopeptide in serial 2-fold dilutions in water. Adjustment of the pH was done by diluted solutions of HCl and NaOH Inhibition of growth was determined by measuring the absorbance at 600 nm with a Microplate autoreader E1309 (Bio-Tek Instruments), after an incubation time of 18-20 h at 37° C. Antibacterial activities were expressed as the minimal inhibitory concentration (MIC), the concentration at which 100% inhibition of growth was observed after 18-20 h of incubation. The bacteria used were: Escherichia coli ATCC 25922, Acinetobacter baumannii ATCC 19606, Pseudomonas aeruginosa ATCC 27853, Staphylococcus aureus ATCC 6538P, Enterococcus faecalis ATCC 29212, Enterobacter cloacae ATCC 49141. The antibacterial activity of lipopeptides was also examined against resistant bacteria: methicilin-resistant Staphylococcus aureus (MRSA) ATCC 700698 and vancomycin-resistant Enterococcus faecium (VRE) ATCC 700221. If not indicated otherwise, the bacterial growth was detected at pH 7.4.

[4] = test system: Acinetobacter baumannii ATCC 19606; settings: ATCC 19606, pH 7.4
Protocol: as §2

[5] = test system: Staphylococcus aureus ATCC 6538P
Protocol: as §2

[6] = test system: Cryptococcus neoformans ATCC MYA-422; assay: microbe, parasite or virus in culture; settings: read-out: Minimal Inhibitory Concentration, Cyrptococcus neoformans (ATCC MYA-422)
[7] = test system: E. coli D21; settings: D21, pH 7.4
[8] = test system: B. subtilis ATCC 6051; settings: ATCC 6051
[9] = test system: Escherichia coli ATCC 25922; settings: for Minimal Inhibitory Concentration, E. coli: ATCC 25922, pH 7.4
Protocol: as §2

[10] = test system: Cryptococcus neoformans ATCC 66031; assay: microbe, parasite or virus in culture; settings: ATCC 66031, pH 7.4
Protocol: as §1

[11] = test system: Enterobacter cloacae ATCC 49141; settings: ATCC 49141, pH 7.4
Protocol: as §2

[12] = test system: Enterococcus faecalis ATCC 29212; settings: ATCC 29212, pH 7.4
Protocol: as §2

[13] = test system: methicilin-resistant Staphylococcus aureus (MRSA) ATCC 700698; settings: for Minimal Inhibitory Concentration, S. aureus (MRSA): ATCC 700698, pH 7.4
Protocol: as §2

[14] = test system: human red blood cells (hRBC); assay: Hemolytic activity, release of hemoglobin at 540 nm; settings: up to a concentration of 25 μM; human red blood cells (FIGS. 6-7)
Protocol: Fresh human red blood cells (hRBC) with EDTA were rinsed 3 times with PBS (35 mM phosphate buffer/0.15 M NaCl, pH 7.3) by centrifugation for 10 min at 800 g and resuspended in PBS. Peptides dissolved in PBS were then added to 50 μl of a solution of the stock hRBC in PBS to reach a final volume of 100 μl (final erythrocyte concentration, 4% v/v). The resulting suspension was incubated under agitation for 60 min at 37° C. The samples were then centrifuged at 800×g for 10 min. Release of hemoglobin was monitored by measuring the absorbance of the supernatant at 540 nm. Controls for zero hemolysis (blank) and 100% hemolysis consisted of hRBC suspended in PBS and Triton 1%, respectively.

| Structure (SMILES) | Minimal Inhibitory Concentration, A. fumigatus ATCC 26430 ([1]; ATCC 26430, pH 7.4) [µM] | Minimal Inhibitory Concentration, C. albicans ATCC 10231 ([2]; ATCC 10231, pH 7.4) [µM] | Minimal Inhibitory Concentration, C. neoformans ATCC 66031 [10] [µM] | Minimal Inhibitory Concentration, E. coli [9] [µM] | Minimal Inhibitory Concentration, E. cloacae [11] [µM] | Minimal Inhibitory Concentration, P. Aeruginosa ([3]; ATCC 27853, pH 7.4) [µM] | Minimal Inhibitory Concentration, E. faecalis [12] [µM] | Minimal Inhibitory Concentration, S. aureus (MRSA) [13] [µM] | Minimal Inhibitory Concentration, S. aureus ([5]; ATCC 6538, pH 7.4) [µM] | Minimal Inhibitory Concentration, A. Baumaannii [4] [µM] | further results |
| --- | --- | --- | --- | --- | --- | --- | --- | --- | --- | --- | --- |
| CCCCCCCCCCCCCCCC(=O)N[C@@H](CCCNC(=N)N)C(=O)N[C@@H](CC(C)C)C(=O)N[C@H](CC(C)C)C(=O)N[C@@H](CCCNC(=N)N)C(N)=O [PA-RLLR, Palmitoyl-Arg-Leu-D-Leu-Arg-NH2] (Palmitoyl-RL[dL]R-NH2) | – | – | – | – | – | – | – | – | – | – | MIC ([1]; ATCC 26430, pH 7.4, read-out: Minimal Inhibitory Concentration, Aspergillus Fomigatus (ATCC 26430)): 6.25 µM (≈ 4.96 µg/mL); MIC ([2]; ATCC 10231, pH 7.4): 25 µM (≈ 19.9 µg/mL); Minimal Inhibitory Concentration, P. aeruginosa ATCC 27853 ([3]; ATCC 27853, pH 7.4): >100 µM; Minimal Inhibitory Concentration, A. baumannii ATCC 19606 [4]: >100 µM; Minimal Inhibitory Concentration, S. aureus ATCC 6538P ([5]; ATCC 6538, pH 7.4): 25 µM; MIC ([6]; ATCC MYA-422, pH 7.4): 1.56 µM (≈ 1.24 µg/mL); Minimal Inhibitory Concentration, E. coli-D21 [7]: >100 µM |
| CC[C@H](C)[C@H](NC(=O)CN)C(=O)NCC(=O)N[C@@H](CCCCN)C(=O)N[C@@H](Cc1ccccc1)C(=O)N[C@H](CC(C)C)C(=O)N[C@@H](Cc1c[nH]cn1)C(=O)N[C@@H](CO)C(=O)N[C@@H](C)C(=O)N[C@H](CCCCN)C(=O)N[C@@H](CCCCN)C(=O)N[C@@H](Cc1c[nH]c2ccccc12)C(=O)NCC(=O)N[C@@H](CCCCN)C(=O)N[C@@H](C)C(=O)N[C@H](Cc1ccccc1)C(=O)N[C@H](C(=O)NCC(=O)N[C@H](CCC(=O)O)C(=O)N[C@H](C(=O)N[C@@H](CCSC)C(=O)N[C@@H](CC(N)=O)C(=O)N[C@@H](CO)C(N)=O)[C@@H](C)CC)C(C)C [[D]4magainin, Gly-Ile-Gly-Lys-Phe-D-Leu-His-Ser-Ala-D-Lys-Lys-Trp-Gly-Lys-Ala-D-Phe-Val-Gly-D-Glu-Ile-Met-Asn-Ser-NH2, reference compound] (H-GIGKF[dL]HSA[dK]KWGKA[dF]VG[dE]IMNS-NH2; N-terminus assumed) | – | – | – | – | – | – | – | – | – | – | Minimal Inhibitory Concentration, B. subtilis (ATCC 6051) [8]: 50 µM; Minimal Inhibitory Concentration, Aspergillus fumigatus (ATCC 26430) ([1]; ATCC 26430): >50 µM; MIC ([2]; ATCC 10231): >50 µM; Minimal Inhibitory Concentration, E. coli (ATCC 25922) ([9]; ATCC 25922): >50 µM; Minimal Inhibitory Concentration, P. aeruginosa ATCC 27853 ([3]; ATCC 27853): >50 µM; Minimal Inhibitory Concentration, S. aureus ATCC 6538P ([5]; ATCC 6538): >50 µM; MIC ([6]; Table 17, D-magainin analog, mean of 3 experiments, standard deviation of 25%): >50 µM |
| CCCCCCCCCCCCCC(=O)N[C@H](CCCCN)C(=O)NCC(=O)NCC(=O)NCC(=O)N[C@H](CCCCN)C(=O)NCC(=O)NCC(=O)NCC(=O)N[C@H](CCCCN)C(=O)NCC(=O)NCC(=O)N[C@H](CCCCN)C(N)=O [lipopeptide 1, (CH3—(CH2)12—CO—)-D-Lys-Gly-Gly-Gly-D-Lys-Gly-Gly-Gly-D-Lys-Gly-Gly-D-Lys-NH2] (Myristoyl-[dK]GGG[dK]GGG[dK]GG[dK]-NH2) | 6.25 | 3.125 | 6.25 | 12.5 | 3.125 | 6.25 | 3.125 | 6.25 | 6.25 | – | – |
| CCCCCCCCCCCCCCCC(=O)N[C@@H](CCCCN)C(=O)NCC(=O)NCC(=O)NCC(=O)N[C@@H](CCCCN)C(=O)NCC(=O)NCC(=O)NCC(=O)N[C@@H](CCCCN)C(=O)NCC(=O)NCC(=O)N[C@@H](CCCCN)C(N)=O [lipopeptide 4, (CH3—(CH2)14—CO—)-Lys-Gly-Gly-Gly-Lys-Gly-Gly-Gly-Lys-Gly-Gly-Lys-NH2] (Palmitoyl-KGGGKGGGKGGK-NH2) | 6.25 | 3.125 | 1.56 | 25 | 50 | 6.25 | 12.5 | 12.5 | 12.5 | 25 | – |
| CCCCCCCCCCC(=O)N[C@@H](CCCCN)C(=O)N[C@@H](CC(C)C)C(=O)N[C@H](CC(C)C)C(=O)N[C@H](CC(C)C)C(=O)N[C@@H](CCCCN)C(=O)N[C@@H](CC(C)C)C(=O)N[C@@H](CC(C)C)C(=O)N[C@H](CC(C)C)C(=O)N[C@@H](CCCCN)C(=O)N[C@H](CC(C)C)C(=O)N[C@@H](CC(C)C)C(=O)N[C@@H](CCCCN)C(N)=O [lipopeptide 10, (CH3—(CH2)9—CO—)-Lys-Leu-D-Leu-D-Leu-Lys-Leu-Leu-D-Leu-Lys-D-Leu-Leu-Lys-NH2] (Undecanoyl-KL[dL][dL]KLL[dL]K[dL]LK-NH2) | 6.25 | 3.125 | 1.56 | 6.25 | 1.56 | 3.25 | 3.125 | 3.125 | 3.125 | 3.125 | activity against MRSA ([13]; in words, summary of Table 4): highly active |
| CCCCCCCCCCCC(=O)N[C@H](CC(C)C)C(=O)N[C@@H](Cc1cnc[nH]1)C(=O)N[C@@H](Cc1cnc[nH]1)C(=O)N[C@H](CC(C)C)C(=O)N[C@H](CC(C)C)C(=O)N[C@@H](Cc1cnc[nH]1)C(=O)N[C@@H](Cc1cnc[nH]1)C(=O)N[C@H](CC(C)C)C(=O)N[C@H](CC(C)C)C(=O)N[C@@H](Cc1cnc[nH]1)C(=O)N[C@@H](Cc1cnc[nH]1)C(=O)N[C@H](CC(C)C)C(N)=O [lipopeptide 26, (CH3-(CH2)10-CO-)-D-Leu-His-His-D-Leu-D-Leu-His-His-D-Leu-D-Leu-His-His-D-Leu-NH2] (Lauroyl-[dL]HH[dL][dL]HH[dL][dL]HH[dL]-NH2) | – | – | – | – | – | – | – | – | – | – | hemolytic activity [14]: do not exert hemolytic activity |
